Legend:
[1] = system: primary astrocytes; test: Intracellular glycogen quantification, Example 2; format: cell-based, mouse; conditions: 10 μM, 3 h (GP-0157: 0.1, 1, 10 μM)
Method: Primary cultures of cerebrocortical astrocytes were obtained from 1 to 2-day-old OF1 mouse pups (Charles River). Briefly, cortices were isolated and minced in small pieces under a dissecting microscope. The cells were incubated for 30 min at 37° C. in a solution containing 20 U/ml papain, 1 mM L-cysteine and 10 kU/ml DNase I. After dissociation, papain activity was stopped by the addition of fetal calf serum (FCS). Single-cell suspension was then obtained by mechanical dissociation, which consisted in cells trituration in a DMEM D7777 medium supplemented with 44 mm NaHCO3, 10 ml/L antibiotic/antimycotic solution and 10% FCS. The cells were seeded at an average density of ˜10,000 cells/cm2 on poly-D-lysine coated 96- or 12-well culture plates, depending on their use, and grown in DMEM D7777 medium supplemented with 44 mm NaHCO3, 10 ml/L antibiotic/antimycotic solution and 10% FCS at 37° C. in a humidified atmosphere containing 5% CO2/95% air. Culture medium was renewed twice a week. Cells were stimulated and harvested between DIV14 and DIV17, when confluence and cell growth were optimal.
Astrocytes grown on 12-well plates were used for intracellular glycogen quantifications. Cells were stimulated with Vehicle (DMSO), with compounds of the invention (10 μM), or with a positive control for 180 min, at 37° C. 5% CO2/95% air in D5030 medium complemented with 5 mM D-glucose and 44 mM sodium bicarbonate (pH 7.2). […] At the end of the stimulation, medium was removed and replaced with 600 μl of 30 mM Tris HCl, and stored at −20° C.
First, the amount of proteins in each sample was quantified to assess whether harvested astrocytes from primary cell cultures yielded enough and equivalent amounts of proteins on each replicates. Proteins were quantified using the micro BCA Protein Assay kit (Thermo Scientific), according to manufacturer's instructions. Next, intracellular glycogen concentrations were quantified using a 250 μl-aliquot of the same stimulated, thawed, and sonicated cell lysate. After an incubation period of 30 min at 90° C. and 400 rpm, 28 μl of a 0.1M acetic acid/sodium acetate buffer (pH 4.6) was added to each lysate aliquots, which were then separated in two. Each split aliquots received either 5 μl of amyloglucosidase or H2O, and incubated for 120 min at 37° C. After centrifugation at 16,000 G for 5 min, 20 μl of supernatant were placed in a 96-well plate, to which 150 μl of a mix containing 0.67 mM ATP, 0.67 mM NADP, 1.8% hexokinase/glucose-6-phosphate dehydrogenase in a 0.1M Tris Buffer-HCl/3.3 mM magnesium (pH 8.1) buffer was added. Fluorescence intensity (340 nm excitation/440 nm emission) was measured using a Safire 2 spectrophotometer. Glucose concentrations were assessed relative to a glucose standard curve, and glycogen concentrations were calculated by subtracting glucose values of samples that had received amyloglucosidase (i.e. that had degraded their glycogen stores) to samples that had not. Intracellular levels of glycogen, which is the main source of glucose storage in the brain, were analyzed in primary astrocytes after treatment with compounds of interest (10 μM, 3 h) (FIG. 5B), and compound GP-0157 (0.1, 1, 10 μM, 3 h) (FIG. 18).

[2] = system: astrocytes; test: Intracellular glycogen quantification; format: cell-based, mouse; conditions: CDC54K hits; 10 μM, 3 h
[3] = system: cerebral extracellular lactate; test: In vivo pharmacodynamics - lactate biosensors; parameters: species or system mouse; conditions: 100 mg/kg per os; AUC ratio vs vehicle
Method: Extracellular levels of lactate were monitored in vivo using lactate biosensors (Pinnacle Technology), according to the manufacturer's instructions. Cannulae were surgically implanted in mice cerebral motor cortex areas M1/M2 (coordinates: +1.94 mm (to bregma), lateral −1.4 mm (to mideline), ventral −1.0 mm (to dura)) 5-7 days before administration of the compounds. Drugs were administered per os as previously described, and cerebral levels of extracellular lactate were dynamically recorded for 6 hours. Mice were administered vehicle alone first, followed 3 hours later by vehicle or drug (10 or 100 mg/kg). Area Under the Curve (AUC) quantifying the fluctuations of extracellular lactate concentrations for each of the compound tested was calculated using Graphad Prism and the ratio of AUC after drug over Vehicle administration was calculated. Groups of 8 male mice were used for each condition.
To measure biological effect of lead molecules in vivo in the brain, lactate levels were quantified after administration of the drug by using lactate biosensors implanted in the cortex of freely moving mice.

SMILES	Mobilization of intracellular glycogen [1]	Glycogen (statistical significance of glycogen degradation) [2]	Cerebral lactate [3]
Cc1ccccc1NC(=O)C1CCCN(c2ncnc3oc(C)c(C)c23)C1 (stereo not shown) [F228-0422]	significantly enhance	–	–
COc1ccccc1[N+]1=C2CCCCCN2C(O)(c2ccc(C)cc2)C1 (stereo not shown) [K404-0834]	significantly enhance	–	–
CCc1nc(-c2csc(S(=O)(=O)NCc3ccc4c(c3)OCO4)c2)no1 [L287-0468]	significantly enhance	–	–
CCn1nccc1-c1csc(S(=O)(=O)Nc2ccc(Cl)cc2F)c1 [L924-1031]	significantly enhance	–	–
CC(=O)N1CCc2sc(S(=O)(=O)N3CCN(c4ccccc4C)CC3)cc2C1 [P025-0159]	significantly enhance	ns	Significant increase
COc1ccc(Nc2nc(N3CCOCC3)c3ccccc3n2)cc1.Cl [T0508-5190]	significantly enhance	–	–
c1ccc2c(c1)CCN(c1ncnc3sccc13)C2 [T0517-8250]	significantly enhance	ns	–
N#Cc1ccc(C(=O)N2CCC(Nc3ncnc4c3CCC4)C2)cc1 (stereo not shown) [T636-2387]	significantly enhance	ns	Significant increase
COc1cc(C)c(Cl)cc1S(=O)(=O)NCc1ccncc1 [T5580243]	–	ns	Significant increase
O=C1CCCN1c1ccc(S(=O)(=O)Nc2cccc(/C=C/c3ccccn3)c2)cc1 [T5644989]	significantly enhance	–	–
O=S(=O)(Nc1cc(F)cc(F)c1)c1ccc2ccccc2c1 [T5884038]	significantly enhance	–	–
Cc1nc2ccc(NS(=O)(=O)c3cccc(F)c3)cc2s1 [T6937001]	significantly enhance	ns	–

From patent publication US12274703B2, “Compositions and methods of treatment for neurological disorders comprising a dementia” (Gliapharm SA, priority 2017, dated 2025)
